Assay results taken from US20230089073A1 (Carmot Therapeutics, Inc., priority 2021, published 2023).

biological target: T1, human GLP-1 receptor (Homo sapiens, UniProt P43220); assay: GLP-1R cAMP Assay; format: cell-based; details: cAMP accumulation in CHO cells stably overexpressing the human GLP-1 receptor; 30 min treatment; HitHunter cAMP kit; read-out: EC50
T1 construct: expressed in transfected cells
Outline: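 CHO cells stably overexpressing human GLP-1R, 10,000 cells/well, treated with compound in 20-point dose response in triplicate for 30 min. cAMP accumulation read by enzyme-complementation luminescence after lysis and overnight incubation; dose-response curves fitted.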

T1 sequence (P43220 24-463): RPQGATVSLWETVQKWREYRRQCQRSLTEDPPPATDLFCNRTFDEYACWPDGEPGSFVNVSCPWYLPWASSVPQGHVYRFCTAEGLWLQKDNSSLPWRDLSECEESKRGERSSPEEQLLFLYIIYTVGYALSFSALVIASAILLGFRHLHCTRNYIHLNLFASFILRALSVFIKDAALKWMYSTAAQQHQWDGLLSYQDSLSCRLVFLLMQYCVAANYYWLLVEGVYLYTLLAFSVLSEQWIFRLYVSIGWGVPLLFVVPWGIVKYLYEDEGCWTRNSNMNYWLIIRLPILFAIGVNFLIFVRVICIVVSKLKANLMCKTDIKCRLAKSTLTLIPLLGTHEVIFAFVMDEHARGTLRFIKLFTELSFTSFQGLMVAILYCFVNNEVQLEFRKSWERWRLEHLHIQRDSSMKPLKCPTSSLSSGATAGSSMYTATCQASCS

SMILES | EC50
N#Cc1ccc(COc2cccc(C(=O)N3CCN(Cc4nc5ccc(C(=O)O)cc5n4C[C@@H]4CCO4)CC3)c2)c(F)c1 [Compound 66, 2-[(4-{3-[(4-cyano-2-fluorophenyl)methoxy]benzoyl}piperazin-1-yl)methyl]-1-{[(2S)-oxetan-2-yl]methyl}-1H-1,3-benzodiazole-6-carboxylic acid] | > 500 nM
O=C(O)c1ccc2nc(CN3CCN(C(=O)c4cccc(Cc5ccc(F)cc5)c4)CC3)n(C[C@@H]3CCO3)c2c1 [Compound 3, 2-[(4-{3-[(4-fluorophenyl)methyl]benzoyl}piperazin-1-yl)methyl]-1-{[(2S)-oxetan-2-yl]methyl}-1H-1,3-benzodiazole-6-carboxylic acid] | > 500 nM
Cc1ccc(N(C)c2ccnc(C(=O)N3CCN(Cc4nc5ccc(C(=O)O)cc5n4C[C@@H]4CCO4)CC3)c2)c(Cl)c1 [Compound 88, 2-[(4-{4-[(2-chloro-4-methylphenyl)(methyl)amino]pyridine-2-carbonyl}piperazin-1-yl)methyl]-1-{[(2S)-oxetan-2-yl]methyl}-1H-1,3-benzodiazole-6-carboxylic acid] | > 500 nM
O=C(c1ccc(-c2nnn[nH]2)nc1)N1CCN(Cc2ccc(COc3ccc(Cl)cc3Cl)o2)CC1 [Compound 97, 1-({5-[(2,4-dichlorophenoxy)methyl]furan-2-yl}methyl)-4-[6-(1H-1,2,3,4-tetrazol-5-yl)pyridine-3-carbonyl]piperazine] | > 500 nM
CCn1cncc1Cn1c(CN2CCN(C(=O)c3cc(N(C)c4ccc(C)cc4Cl)ccc3C)CC2)nc2ccc(C(=O)O)cc21 [Compound 76, 2-[(4-{5-[(2-chloro-4-methylphenyl)(methyl)amino]-2-methylbenzoyl}piperazin-1-yl)methyl]-1-[(1-ethyl-1H-imidazol-5-yl)methyl]-1H-1,3-benzodiazole-6-carboxylic acid] | < 50 nM
C[C@H]1C[C@@H](Oc2ccnc(COc3ccc(C#N)cc3F)n2)CCN1Cc1nc2ncc(C(=O)O)cc2n1C[C@@H]1CCO1 [Compound 513, 2-{[(2S,4S)-4-({2-[(4-cyano-2-fluorophenoxy)methyl]pyrimidin-4-yl}oxy)-2-methylpiperidin-1-yl]methyl}-1-{[(2S)-oxetan-2-yl]methyl}-1H-imidazo[4,5-b]pyridine-6-carboxylic acid] | < 50 nM
CCn1cncc1Cn1c(CN2CCN(C(=O)c3cnc(COc4ccc(Cl)cc4Cl)o3)C[C@@H]2C)nc2ccc(C(=O)O)cc21 [Compound 256, 2-{[(2S)-4-{2-[(2,4-dichlorophenoxy)methyl]-1,3-oxazole-5-carbonyl}-2-methylpiperazin-1-yl]methyl}-1-[(1-ethyl-1H-imidazol-5-yl)methyl]-1H-1,3-benzodiazole-6-carboxylic acid] | < 50 nM
O=C(O)c1ccc2nc(CN3CCc4[nH]c5ccc(OC(F)(F)F)cc5c4C3)n(C[C@@H]3CCO3)c2c1 [Compound 53, 1-{[(2S)-oxetan-2-yl]methyl}-2-{[8-(trifluoromethoxy)-1H,2H,3H,4H,5H-pyrido[4,3-b]indol-2-yl]methyl}-1H-1,3-benzodiazole-6-carboxylic acid] | > 500 nM
CCn1cncc1Cn1c(CN2CCN(C(=O)c3cccc(Cc4ccc(C)cc4Cl)c3)CC2)nc2ccc(C(=O)O)cc21 [Compound 56, 2-[(4-{3-[(2-chloro-4-methylphenyl)methyl]benzoyl}piperazin-1-yl)methyl]-1-[(1-ethyl-1H-imidazol-5-yl)methyl]-1H-1,3-benzodiazole-6-carboxylic acid] | 50 to 500 nM
O=C(O)c1ccc2nc(CN3CCC(Oc4ccnc(COc5ccc(Cl)cc5F)c4)CC3)n(C[C@@H]3CCO3)c2n1 [Compound 378] | < 50 nM
N#Cc1ccc(OCc2nccc(O[C@@H]3C[C@H]4CC[C@@H](C3)N4Cc3nc4ccc(C(=O)O)cc4n3C[C@@H]3CCO3)n2)c(F)c1 [Compound 487, 2-{[(1R,3S,5S)-3-({2-[(4-cyano-2-fluorophenoxy)methyl]pyrimidin-4-yl}oxy)-8-azabicyclo[3.2.1]octan-8-yl]methyl}-1-{[(2S)-oxetan-2-yl]methyl}-1H-1,3-benzodiazole-6-carboxylic acid] | 50 to 500 nM
O=C(O)c1ccc2nc(CN3CCC(Cc4ccc(F)c(COc5ccc(Cl)cc5Cl)c4)CC3)n(C[C@@H]3CCO3)c2c1 [Compound 162, 2-{[4-({3-[(2,4-dichlorophenoxy)methyl]-4-fluorophenyl}methyl)piperidin-1-yl]methyl}-1-{[(2S)-oxetan-2-yl]methyl}-1H-1,3-benzodiazole-6-carboxylic acid] | < 50 nM
Cc1ccc(N(C)c2cc(F)cc(C(=O)N3CCN(Cc4nc5ccc(C(=O)O)cc5n4C[C@@H]4CCO4)CC3)c2)c(Cl)c1 [Compound 100, 2-[(4-{3-[(2-chloro-4-methylphenyl)(methyl)amino]-5-fluorobenzoyl}piperazin-1-yl)methyl]-1-{[(2S)-oxetan-2-yl]methyl}-1H-1,3-benzodiazole-6-carboxylic acid] | < 50 nM
Cc1ccc2oc3cc(C(=O)N4CCN(Cc5nc6ccc(C(=O)O)cc6n5C[C@@H]5CCO5)CC4)ccc3c(=O)c2c1 [Example 44, (S)-2-((4-(7-Methyl-9-oxo-9H-xanthene-3-carbonyl)piperazin-1-yl)methyl)-1-(oxetan-2-ylmethyl)-1H-benzo[d]imidazole-6-carboxylic acid] | 50 to 500 nM
CN(c1ccccc1)c1cc(C(=O)N2CCN(Cc3nc4ccc(C(=O)O)cc4n3C[C@@H]3CCO3)CC2)ncn1 [Example 62, (S)-2-((4-(6-(Methyl(phenyl)amino)pyrimidine-4-carbonyl)piperazin-1-yl)methyl)-1-(oxetan-2-ylmethyl)-1H-benzo[d]imidazole-6-carboxylic acid] | > 500 nM
CCN(c1cccc(C(=O)N2CCN(Cc3nc4ccc(C(=O)O)cc4n3C[C@@H]3CCO3)CC2)c1)c1ccc(C)cc1Cl [Compound 52, 2-[(4-{3-[(2-chloro-4-methylphenyl)(ethyl)amino]benzoyl}piperazin-1-yl)methyl]-1-{[(2S)-oxetan-2-yl]methyl}-1H-1,3-benzodiazole-6-carboxylic acid] | < 50 nM
CCn1cncc1Cn1c(CN2CCN(C(=O)c3cccc(CNc4ccc(C)cc4Cl)c3)CC2)nc2ccc(C(=O)O)cc21 [Compound 79, 2-{[4-(3-{[(2-chloro-4-methylphenyl)amino]methyl}benzoyl)piperazin-1-yl]methyl}-1-[(1-ethyl-1H-imidazol-5-yl)methyl]-1H-1,3-benzodiazole-6-carboxylic acid] | > 500 nM
N#Cc1ccc(COc2cccc(C3CCN(C(=O)c4ccc(C(=O)O)nc4)CC3)n2)c(F)c1 [Example 91, 5-(4-(6-((4-Cyano-2-fluorobenzyl)oxy)pyridin-2-yl)piperidine-1-carbonyl)picolinic acid] | > 500 nM

The next lines start with the values.

EC50 | SMILES
< 50 nM | CCn1cnnc1Cn1c(CN2CCC(Oc3ccnc(COc4ccc(Cl)cc4F)c3)CC2)nc2ccc(C(=O)O)cc21 [Compound 316]
< 50 nM | O=C(O)c1ccc2nc(CN3CCC(Oc4ccnc(COc5ccc(Cl)cc5Cl)c4)CC3)n(Cc3ccno3)c2c1 [Compound 257, 2-{[4-({2-[(2,4-dichlorophenoxy)methyl]pyridin-4-yl}oxy)piperidin-1-yl]methyl}-1-[(1,2-oxazol-5-yl)methyl]-1H-1,3-benzodiazole-6-carboxylic acid]
< 50 nM | N#Cc1cc(Cl)ccc1OCc1cccc(CC2CCN(Cc3nc4ccc(C(=O)O)cc4n3Cc3ncco3)CC2)c1 [Compound 159, 2-{[4-({3-[(4-chloro-2-cyanophenoxy)methyl]phenyl}methyl)piperidin-1-yl]methyl}-1-[(1,3-oxazol-2-yl)methyl]-1H-1,3-benzodiazole-6-carboxylic acid]
> 500 nM | N#Cc1cc(Cl)ccc1OCc1cccc(OC2CCN(Cc3nc4ccc(C(=O)O)cc4n3Cc3ccno3)CC2)n1 [Compound 253, 2-{[4-({6-[(4-chloro-2-cyanophenoxy)methyl]pyridin-2-yl}oxy)piperidin-1-yl]methyl}-1-[(1,2-oxazol-5-yl)methyl]-1H-1,3-benzodiazole-6-carboxylic acid]
< 50 nM | N#Cc1cc(Cl)ccc1OCc1cccc(CC2CCN(Cc3nc4ccc(C(=O)O)cc4n3C[C@@H]3CCO3)CC2)c1 [Compound 166, 2-{[4-({3-[(4-chloro-2-cyanophenoxy)methyl]phenyl}methyl)piperidin-1-yl]methyl}-1-{[(2S)-oxetan-2-yl]methyl}-1H-1,3-benzodiazole-6-carboxylic acid]
< 50 nM | CCn1cncc1Cn1c(CN2CCC(Oc3cccc(COc4ccc(Cl)cc4C#N)n3)CC2)nc2ccc(C(=O)O)cc21 [Compound 246, 2-{[4-({6-[(4-chloro-2-cyanophenoxy)methyl]pyridin-2-yl}oxy)piperidin-1-yl]methyl}-1-[(1-ethyl-1H-imidazol-5-yl)methyl]-1H-1,3-benzodiazole-6-carboxylic acid]
< 50 nM | O=C(O)c1ccc2nc(CN3CCC(Oc4ccnc(COc5ccc(Cl)cc5Cl)n4)CC3)n(C[C@@H]3CCO3)c2c1 [Example 304, (S)-2-((4-((2-((2,4-Dichlorophenoxy)methyl)pyrimidin-4-yl)oxy)piperidin-1-yl)methyl)-1-(oxetan-2-ylmethyl)-1H-benzo[d]imidazole-6-carboxylic acid]
< 50 nM | CCn1cncc1Cn1c(CN2CCC(C(F)c3cccc(COc4ccc(C)cc4Cl)c3)CC2)nc2ccc(C(=O)O)cc21 (racemic) [Example 131, 2-((4-((3-((2-Chloro-4-methylphenoxy)methyl)phenyl)fluoromethyl)piperidin-1-yl)methyl)-1-((1-ethyl-1H-imidazol-5-yl)methyl)-1H-benzo[d]imidazole-6-carboxylic acid]
< 50 nM | CCn1cncc1Cn1c(CN2CCC(C(F)(F)c3cccc(COc4ccc(C)cc4Cl)c3)CC2)nc2ccc(C(=O)O)cc21 [Example 132, 2-((4-((3-((2-Chloro-4-methylphenoxy)methyl)phenyl)difluoromethyl)piperidin-1-yl)methyl)-1-((1-ethyl-1H-imidazol-5-yl)methyl)-1H-benzo[d]imidazole-6-carboxylic acid]
